Data as given in ChEMBL document CHEMBL1201862, “PubChem BioAssay data set” (2004).
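Cultured in 96-well plates, cells were exposed to test compound for 48 hours across five concentrations. GI50: concentration for 50% inhibition of growth.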 Calls of active or inactive are those of the source. Cut-off read from the data, not from the text of the source: active = GI50 up to about 1.1 µM and inactive = higher.

What was measured:
Assay in all cases: DTP human tumour cell line panel, 48 h
786-0 = system: 786-0
A498 = system: A498
A549 = system: A549
ACHN = system: ACHN
BT-549 = system: BT-549
CAKI-1 = system: CAKI-1
CCRF-CEM = system: CCRF-CEM
DU-145 = system: DU-145
EKVX = system: EKVX
HCC 2998 = system: HCC 2998
HCT-116 = system: HCT-116
HCT-15 = system: HCT-15
HL-60 = system: HL-60
HOP-62 = system: HOP-62
HOP-92 = system: HOP-92
HT-29 = system: HT-29
Hs-578T = system: Hs-578T
IGROV-1 = system: IGROV-1
K562 = system: K562
KM12 = system: KM12
LOX IMVI = system: LOX IMVI
M14 = system: M14
MCF7 = system: MCF7
MDA-MB-231 = system: MDA-MB-231
MDA-MB-435 = system: MDA-MB-435
MDA-N = system: MDA-N
MOLT-4 = system: MOLT-4
Malme-3M = system: Malme-3M
NCI-H23 = system: NCI-H23
NCI-H460 = system: NCI-H460
NCI-H522 = system: NCI-H522
NCI/ADR-RES = system: NCI/ADR-RES
OVCAR-3 = system: OVCAR-3
OVCAR-4 = system: OVCAR-4
OVCAR-5 = system: OVCAR-5
OVCAR-8 = system: OVCAR-8
PC-3 = system: PC-3
RPMI-8226 = system: RPMI-8226
RXF 393 = system: RXF 393
SF-268 = system: SF-268
SF-295 = system: SF-295
SF-539 = system: SF-539
SK-MEL-28 = system: SK-MEL-28
SK-MEL-2 = system: SK-MEL-2
SK-MEL-5 = system: SK-MEL-5
SK-OV-3 = system: SK-OV-3
SN12C = system: SN12C
SNB-19 = system: SNB-19
SNB-75 = system: SNB-75
SW-620 = system: SW-620
T47D = system: T47D
TK-10 = system: TK-10
U-251 = system: U-251
UACC-257 = system: UACC-257
UACC-62 = system: UACC-62
UO-31 = system: UO-31
COLO 205 = system: COLO 205
NCI-H226 = system: NCI-H226
SR = system: SR

Question: For O=C(O)/C(=C/c1ccccc1)c1ccccc1, which GI50 (786-0) is on record?
Answer: > 100 µM (inactive)

Question: And the GI50 (A498)?
Answer: > 100 µM (inactive)

Question: And the GI50 (A549)?
Answer: > 100 µM (inactive)

Question: And the GI50 (ACHN)?
Answer: > 100 µM (inactive)

Question: What about the GI50 (BT-549) of the same compound?
Answer: > 100 µM (inactive)

Question: And the GI50 (CAKI-1)?
Answer: > 100 µM (inactive)

Question: And the GI50 (CCRF-CEM)?
Answer: > 100 µM (inactive)

Question: What about the GI50 (DU-145) of the same compound?
Answer: > 100 µM (inactive)

Question: What about the GI50 (EKVX) of the same compound?
Answer: > 100 µM (inactive)

Question: And the GI50 (HCC 2998)?
Answer: > 100 µM (inactive)

Question: What about the GI50 (HCT-116) of the same compound?
Answer: > 100 µM (inactive)

Question: What about the GI50 (HCT-15) of the same compound?
Answer: > 100 µM

Question: And the GI50 (HL-60)?
Answer: > 100 µM (inactive)

Question: What about the GI50 (HOP-62) of the same compound?
Answer: > 100 µM (inactive)

Question: What about the GI50 (HOP-92) of the same compound?
Answer: 46.6 µM (inactive)

Question: What about the GI50 (HT-29) of the same compound?
Answer: > 100 µM (inactive)

Question: And the GI50 (Hs-578T)?
Answer: > 100 µM (inactive)

Question: And the GI50 (IGROV-1)?
Answer: > 100 µM (inactive)

Question: And the GI50 (K562)?
Answer: > 100 µM (inactive)

Question: And the GI50 (KM12)?
Answer: > 100 µM (inactive)

Question: And the GI50 (LOX IMVI)?
Answer: > 100 µM (inactive)

Question: What about the GI50 (M14) of the same compound?
Answer: > 100 µM (inactive)

Question: What about the GI50 (MCF7) of the same compound?
Answer: > 100 µM (inactive)

Question: What about the GI50 (MDA-MB-231) of the same compound?
Answer: > 100 µM (inactive)

Question: What about the GI50 (MDA-MB-435) of the same compound?
Answer: > 100 µM (inactive)

Question: What about the GI50 (MDA-N) of the same compound?
Answer: > 100 µM (inactive)

Question: And the GI50 (MOLT-4)?
Answer: > 100 µM (inactive)

Question: What about the GI50 (Malme-3M) of the same compound?
Answer: > 100 µM (inactive)

Question: And the GI50 (NCI-H23)?
Answer: > 100 µM (inactive)

Question: And the GI50 (NCI-H460)?
Answer: > 100 µM (inactive)

Question: And the GI50 (NCI-H522)?
Answer: > 100 µM (inactive)

Question: And the GI50 (NCI/ADR-RES)?
Answer: > 100 µM (inactive)

Question: And the GI50 (OVCAR-3)?
Answer: > 100 µM (inactive)

Question: What about the GI50 (OVCAR-4) of the same compound?
Answer: > 100 µM (inactive)

Question: What about the GI50 (OVCAR-5) of the same compound?
Answer: > 100 µM (inactive)

Question: And the GI50 (OVCAR-8)?
Answer: > 100 µM (inactive)

Question: And the GI50 (PC-3)?
Answer: > 100 µM (inactive)

Question: What about the GI50 (RPMI-8226) of the same compound?
Answer: > 100 µM (inactive)

Question: What about the GI50 (RXF 393) of the same compound?
Answer: > 100 µM (inactive)

Question: What about the GI50 (SF-268) of the same compound?
Answer: > 100 µM (inactive)

Question: What about the GI50 (SF-295) of the same compound?
Answer: > 100 µM (inactive)

Question: And the GI50 (SF-539)?
Answer: > 100 µM (inactive)

Question: What about the GI50 (SK-MEL-28) of the same compound?
Answer: > 100 µM (inactive)

Question: What about the GI50 (SK-MEL-2) of the same compound?
Answer: > 100 µM (inactive)

Question: And the GI50 (SK-MEL-5)?
Answer: > 100 µM (inactive)

Question: And the GI50 (SK-OV-3)?
Answer: > 100 µM (inactive)

Question: And the GI50 (SN12C)?
Answer: > 100 µM (inactive)

Question: And the GI50 (SNB-19)?
Answer: > 100 µM (inactive)

Question: What about the GI50 (SNB-75) of the same compound?
Answer: > 100 µM (inactive)

Question: What about the GI50 (SW-620) of the same compound?
Answer: > 100 µM (inactive)

Question: What about the GI50 (T47D) of the same compound?
Answer: > 100 µM (inactive)

Question: And the GI50 (TK-10)?
Answer: > 100 µM (inactive)

Question: And the GI50 (U-251)?
Answer: > 100 µM (inactive)

Question: And the GI50 (UACC-257)?
Answer: > 100 µM (inactive)

Question: And the GI50 (UACC-62)?
Answer: > 100 µM (inactive)

Question: What about the GI50 (UO-31) of the same compound?
Answer: > 100 µM (inactive)

Question: For COc1ccc2c(c1)-c1c(c3ccccc3n1CCN1CCOCC1)CC2, which GI50 (786-0) is on record?
Answer: 22.6 µM (inactive)

Question: What about the GI50 (A549) of the same compound?
Answer: 27.1 µM (inactive)

Question: What about the GI50 (ACHN) of the same compound?
Answer: 35.7 µM (inactive)

Question: What about the GI50 (BT-549) of the same compound?
Answer: 23 µM (inactive)

Question: What about the GI50 (CAKI-1) of the same compound?
Answer: 17.5 µM (inactive)

Question: And the GI50 (CCRF-CEM)?
Answer: 22.4 µM (inactive)

Question: And the GI50 (COLO 205)?
Answer: 16 µM (inactive)

Question: And the GI50 (DU-145)?
Answer: 58.9 µM (inactive)

Question: What about the GI50 (EKVX) of the same compound?
Answer: 16.4 µM (inactive)

Question: What about the GI50 (HCC 2998) of the same compound?
Answer: 18.2 µM (inactive)

Question: And the GI50 (HCT-116)?
Answer: 22.4 µM (inactive)

Question: What about the GI50 (HCT-15) of the same compound?
Answer: 25.9 µM

Question: And the GI50 (HOP-62)?
Answer: 20.1 µM (inactive)

Question: And the GI50 (HOP-92)?
Answer: 36.6 µM (inactive)

Question: And the GI50 (HT-29)?
Answer: 13.1 µM (inactive)

Question: And the GI50 (Hs-578T)?
Answer: 13.5 µM (inactive)

Question: And the GI50 (IGROV-1)?
Answer: 5.47 µM (inactive)

Question: What about the GI50 (K562) of the same compound?
Answer: 15.6 µM (inactive)

Question: What about the GI50 (KM12) of the same compound?
Answer: 11.5 µM (inactive)

Question: What about the GI50 (LOX IMVI) of the same compound?
Answer: 16.6 µM (inactive)

Question: What about the GI50 (M14) of the same compound?
Answer: 35 µM (inactive)

Question: And the GI50 (MCF7)?
Answer: 32.3 µM (inactive)

Question: And the GI50 (MDA-MB-231)?
Answer: 18.9 µM (inactive)

Question: What about the GI50 (MDA-MB-435) of the same compound?
Answer: 34.5 µM (inactive)

Question: And the GI50 (MDA-N)?
Answer: 36.7 µM (inactive)

Question: What about the GI50 (MOLT-4) of the same compound?
Answer: 13 µM (inactive)

Question: And the GI50 (Malme-3M)?
Answer: 14.6 µM (inactive)

Question: What about the GI50 (NCI-H226) of the same compound?
Answer: 11.7 µM (inactive)

Question: And the GI50 (NCI-H23)?
Answer: 21.7 µM (inactive)

Question: And the GI50 (NCI-H460)?
Answer: 16.8 µM (inactive)

Question: What about the GI50 (NCI-H522) of the same compound?
Answer: 15.3 µM (inactive)

Question: And the GI50 (NCI/ADR-RES)?
Answer: 11.7 µM (inactive)

Question: And the GI50 (OVCAR-3)?
Answer: 18.2 µM (inactive)

Question: And the GI50 (OVCAR-4)?
Answer: 56.6 µM (inactive)

Question: What about the GI50 (OVCAR-5) of the same compound?
Answer: 35.2 µM (inactive)

Question: And the GI50 (OVCAR-8)?
Answer: 16 µM (inactive)

Question: What about the GI50 (PC-3) of the same compound?
Answer: 14.8 µM (inactive)

Question: And the GI50 (RPMI-8226)?
Answer: 19.4 µM (inactive)

Question: And the GI50 (SF-268)?
Answer: 19 µM (inactive)

Question: What about the GI50 (SF-295) of the same compound?
Answer: 16 µM (inactive)

Question: And the GI50 (SF-539)?
Answer: 25 µM (inactive)

Question: And the GI50 (SK-MEL-28)?
Answer: 55.1 µM (inactive)

Question: And the GI50 (SK-MEL-2)?
Answer: 11 µM (inactive)

Question: What about the GI50 (SK-MEL-5) of the same compound?
Answer: 14.5 µM (inactive)

Question: What about the GI50 (SK-OV-3) of the same compound?
Answer: 53.1 µM (inactive)

Question: And the GI50 (SN12C)?
Answer: 28.2 µM (inactive)

Question: What about the GI50 (SNB-19) of the same compound?
Answer: 21 µM (inactive)

Question: And the GI50 (SNB-75)?
Answer: 10.8 µM (inactive)

Question: What about the GI50 (SR) of the same compound?
Answer: 19.1 µM (inactive)

Question: And the GI50 (SW-620)?
Answer: 32.1 µM (inactive)

Question: What about the GI50 (T47D) of the same compound?
Answer: 21.5 µM (inactive)

Question: What about the GI50 (TK-10) of the same compound?
Answer: 0.0363 µM (active)

Question: What about the GI50 (U-251) of the same compound?
Answer: 26 µM (inactive)

Question: What about the GI50 (UACC-257) of the same compound?
Answer: 36.7 µM (inactive)

Question: And the GI50 (UACC-62)?
Answer: 18.8 µM (inactive)

Question: What about the GI50 (UO-31) of the same compound?
Answer: 22.6 µM (inactive)
